The values that follow come from publication PMC5889475 (Biochimie Open, 2015).

The target of the assay is T1, His-GlNMNAT (GlNMNAT, GlNMNAT-A) (Giardia duodenalis, UniProt A8BW22).
T1 sequence (A8BW22 1-227): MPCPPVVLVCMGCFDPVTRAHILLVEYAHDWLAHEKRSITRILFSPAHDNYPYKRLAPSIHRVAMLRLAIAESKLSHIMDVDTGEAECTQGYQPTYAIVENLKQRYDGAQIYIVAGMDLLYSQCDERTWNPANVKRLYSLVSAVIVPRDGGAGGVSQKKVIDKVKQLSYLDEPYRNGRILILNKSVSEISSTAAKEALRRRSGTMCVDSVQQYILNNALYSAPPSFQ
In words: C18-HPLC of NAAD formation. Format: biochemical. To be noted: ATP 10 mM; NAMN 0.25-12 mM.

For the molecule `O=C([O-])c1ccc[n+]([C@@H]2O[C@H](COP(=O)(O)O)[C@@H](O)[C@H]2O)c1` [NAMN], the “C18-HPLC of NAAD formation” value is on record as “for NAMN saturation was not observed, implying that the enzyme has low affinity yet detectable”.
